Measured values as given in the NIST ThermoML archive (doi:10.1021/je060271a).

Conditions: 283.15 K, Liquid, Vibrating tube method

CCCCCCCC(=O)OCC(COC(=O)CCCCCCC)(COC(=O)CCCCCCC)COC(=O)CCCCCCC [pentaerythritol tetraoctanoate]
Conditions | mass density [kg/m3]
24659 kPa | 983.6
24685 kPa | 983.7
24711 kPa | 983.7
24742 kPa | 983.8
24769 kPa | 983.8
24795 kPa | 983.8
24827 kPa | 983.7
24853 kPa | 983.8
24885 kPa | 983.8
24912 kPa | 983.7
24938 kPa | 983.8
24965 kPa | 983.8
24997 kPa | 983.8
25024 kPa | 983.8
25051 kPa | 983.9
25084 kPa | 983.9
25110 kPa | 983.9
25143 kPa | 983.8
25170 kPa | 983.9
25197 kPa | 984
25229 kPa | 984
25256 kPa | 984
25284 kPa | 984
25312 kPa | 984
25344 kPa | 984
25372 kPa | 984
25405 kPa | 983.9
25433 kPa | 984.1
25461 kPa | 984.1
25494 kPa | 984.1
25521 kPa | 984.2
25549 kPa | 984.1
25583 kPa | 984.1
25611 kPa | 984.2
25639 kPa | 984.2
25673 kPa | 984.2
25701 kPa | 984.1
25730 kPa | 984.4
25758 kPa | 984.3
25792 kPa | 984.2
25821 kPa | 984.3
25850 kPa | 984.3
25884 kPa | 984.3
25912 kPa | 984.3
25941 kPa | 984.2
25976 kPa | 984.3
26004 kPa | 984.3
26034 kPa | 984.5
26069 kPa | 984.4
26098 kPa | 984.3
26126 kPa | 984.4
26162 kPa | 984.4
26191 kPa | 984.5
26220 kPa | 984.4
26250 kPa | 984.4
26286 kPa | 984.5
26315 kPa | 984.5
26350 kPa | 984.6
26380 kPa | 984.6
26411 kPa | 984.6
26442 kPa | 984.6
26478 kPa | 984.6
26508 kPa | 984.6
26538 kPa | 984.6
26568 kPa | 984.6
26604 kPa | 984.5
26634 kPa | 984.6
26666 kPa | 984.6
26702 kPa | 984.7
26733 kPa | 984.7
26770 kPa | 984.7
26802 kPa | 984.7
26834 kPa | 984.8
26866 kPa | 984.8
26897 kPa | 984.8
26929 kPa | 984.9
26966 kPa | 984.8
26997 kPa | 984.8
27034 kPa | 984.8
27066 kPa | 984.8
27098 kPa | 984.9
27129 kPa | 984.9
27167 kPa | 984.9
27199 kPa | 985
27237 kPa | 985.1
27270 kPa | 984.9
27302 kPa | 985.1
27340 kPa | 985.1
27372 kPa | 985
27404 kPa | 985
27437 kPa | 985
27476 kPa | 985.2
27508 kPa | 985.2
27546 kPa | 985.1
27579 kPa | 985.1
27612 kPa | 985.2
27651 kPa | 985.2
27685 kPa | 985.1
27718 kPa | 985.1
27752 kPa | 985.1
27792 kPa | 985.2
27825 kPa | 985.3
27859 kPa | 985.3
27899 kPa | 985.3
27932 kPa | 985.4
27972 kPa | 985.3
28007 kPa | 985.3
28040 kPa | 985.5
28074 kPa | 985.5
28116 kPa | 985.4
28150 kPa | 985.5
28185 kPa | 985.4
28226 kPa | 985.4
28260 kPa | 985.5
28302 kPa | 985.5
28336 kPa | 985.5
28371 kPa | 985.5
28406 kPa | 985.5
28448 kPa | 985.5
28483 kPa | 985.6
28519 kPa | 985.5
28561 kPa | 985.6
28596 kPa | 985.7
28632 kPa | 985.7
28676 kPa | 985.6
28712 kPa | 985.7
28748 kPa | 985.8
28784 kPa | 985.6
28827 kPa | 985.7
28863 kPa | 985.8
28900 kPa | 985.8
28943 kPa | 985.7
28980 kPa | 985.8
29017 kPa | 985.8
29061 kPa | 985.9
29097 kPa | 985.9
29135 kPa | 985.9
29173 kPa | 985.9
29217 kPa | 985.8
29255 kPa | 985.9
29293 kPa | 986
29338 kPa | 986
29375 kPa | 986
29413 kPa | 986.1
29458 kPa | 986
29496 kPa | 986
29534 kPa | 986.1
29579 kPa | 986.1
